Laboratory results as given in patent publication US4845079A, “Peptidylaminodiols” (priority 1988, dated 1989).
Counter-ions that a name gives are not always drawn.

Each compound was assayed against T1, human renal renin (Homo sapiens, UniProt P00797) (assay: in vitro inhibition of human renal renin (angiotensin I formed measured by radioimmunoassay)). Conditions: human renal renin with renin substrate (human angiotensinogen), 37° C., pH 6.0.
T1 construct: with human renal renin, free from acid proteolytic activity; from tissue; host or cells: human kidney (concluded from the word 'renal')
T1 sequence (P00797 67-406): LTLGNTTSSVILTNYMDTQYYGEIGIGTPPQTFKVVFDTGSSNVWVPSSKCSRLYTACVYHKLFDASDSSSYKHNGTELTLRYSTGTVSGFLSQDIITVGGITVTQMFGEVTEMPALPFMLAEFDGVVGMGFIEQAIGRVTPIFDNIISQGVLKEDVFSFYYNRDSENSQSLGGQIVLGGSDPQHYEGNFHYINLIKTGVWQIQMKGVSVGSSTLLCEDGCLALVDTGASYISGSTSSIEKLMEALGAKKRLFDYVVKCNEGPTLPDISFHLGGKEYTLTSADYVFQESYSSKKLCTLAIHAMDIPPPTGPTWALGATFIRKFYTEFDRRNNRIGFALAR
Format: biochemical

Structure (SMILES) | IC50
C[C@H](NC(=O)[C@H](Cc1ccccc1)NC(=O)OC(C)(C)C)C(=O)N[C@@H](CC1CCCCC1)C(O)CO (stereo partly drawn) [Example 3, Boc-Phe-Ala Amide of 3(S)-Amino-4-cyclohexyl-1,2(R,S)-dihydroxybutane] | 4000 nM
CCOC(=O)N[C@@H](Cc1ccccc1)C(=O)N(C)[C@@H](Cc1c[nH]cn1)C(=O)N[C@@H](CC1CCCCC1)[C@@H](O)[C@@H](O)CC(C)C [Example 39, Ethoxycarbonyl-Phe-MeHis Amide of 2(S)-Amino-1-cyclohexyl-3(R),4(S)-dihydroxy-6-methylheptane] | 2 nM
CC(C)C[C@H](O)[C@H](O)[C@H](CC1CCCCC1)NC(=O)[C@H](Cc1cnc[nH]1)NC(=O)[C@H](Cc1ccccc1)NC(=O)C(C)(C)CNC(=O)OCc1ccccc1 [Example 81] | 0.6 nM
CC(C)C[C@H](O)[C@H](O)[C@H](CC1CCCCC1)NC(=O)[C@H](Cc1c[nH]cn1)NC(=O)[C@H](Cc1ccccc1)NC(=O)C(C)(C)CN [Example 82, [(α, α-Di-Me)-β-Ala]-Phe-His Amide of 2(S)-Amino-1-cyclohexyl-3(R),4(S)-dihydroxy-6-methylheptane Bis acetic acid salt] | 0.6 nM
